From patent US4427671A, “Steroids esterified in position 17 and thioesterified in position 21, a process for preparing them and their use as medicaments” (priority 1981, dated 1984)

Legend:
Type in all cases: in vivo, male Sprague-Dawley I.O.P.S. rats
[1] = system: granuloma; assay: Local anti-inflammatory activity: inhibition of granuloma formation around implanted cotton wool pellet; settings: for R 1 (relative local anti-inflammatory activity compared with betamethasone 17,21-dipropionate): D.P.B. = 1, calculated from ED50; for R 1 (relative local anti-inflammatory activity compared with betamethasone 17,21-dipropionate) / ED50 (local anti-inflammatory activity, 50% inhibition in granuloma weight): Table 1; for activity compared with betamethasone 17,21-dipropionate (times greater): local anti-inflammatory test; for ED50 (local anti-inflammatory activity, 50% inhibition in granuloma weight): rat, cotton pellet granuloma, six days after implantation
Procedure: A. Winter and C. C. Porter (J. Am. Pharm. Ass. 1957, 46, 9, pages 515-519).
(§1) The principle of the test consists in implanting a pellet of cotton wool in the dorsal subcutaneous tissue of the animal. The corticoids to be studied are added to the pellet so that the following tests can be carried out:
(1) Determination of the local anti-inflammatory activity
The presence of products within the pellet may inhibit or prevent the formation of a granuloma.
(§2) The animals are divided into random homogeneous groups of 10 male Sprague-Dawley I.O.P.S. rats with a body weight of between 100 and 120 grams.
(§3) The pellets to be implanted weigh from 35 to 40 mg and are prepared from balls of dental cotton wool. Before being inserted, each pellet is weighed and impregnated with the precise quantity of the product which is to be studied, dissolved in 0.2 ml of chloroform. The chloroform is eliminated by evaporation over a period of 24 hours at ambient temperature.
(§4) Before implantation, each pellet is impregnated with a solution of antibiotics:
Streptomycin 0.1 gram/ml.
(§5) The animals are anaesthetised with ether, and then two pellets are implanted in each animal in the dorsal subcutaneous tissue, on each side of the median line:
(§6) on the left, the pellet containing the product to be tested (treated animal) or the carrier only (control animal);
(§7) on the right, the pellet containing the carrier only.
(§8) The animals are given normal food and are sacrificed six days after the pellets have been implanted.
(1) Local anti-inflammatory activity
The pellets surrounded by granulomatous tissue are carefully removed and weighed, and then dried until a constant weight is obtained.
The relative activity of the test products compared with betamethasone 17,21-dipropionate is calculated according to the following equation: [formula]

[2] = system: thymus; assay: Systemic activity after local administration: effect on the weight of the thymus; settings: rat, in vivo, 8640 min
Procedure: (§9) The pharmacological activity of the products described in the invention was tested in the rat using a technique similar to that described by C. A. Winter and C. C. Porter (J. Am. Pharm. Ass. 1957, 46, 9, pages 515-519).
as §1
(§10) (2) Determination of the systemic activity of the products after local administration
(§11) Local application of the corticoids may result, inter alia, in:
(a) a reduction in the defence systems of the organism, the most notable sign of which is a reduction in the weight of the animals' thymuses.
as §2, §3, §4, §5, §6, §7, §8
(2) Determination of the systemic effect
The thymuses are taken from the same animals and weighed. Using the same type of calculation, an ED 50 is determined, which corresponds to the dosage of product resulting in a 50% decrease in weight of the thymuses, compared with the control animals.

[3] = Systemic activity after local administration: effect on weight gain; settings: rat, in vivo, 8640 min
Procedure: as §9, §1, §10, §11
(b) Disruption of the protein metabolism which causes tissue fusion, resulting in an inhibition of the weight increase in animals.
as §2, §3, §4, §5, §6, §7, §8
(b) Effect on weight gain
The weight gain over six days is determined on the animals before they are sacrificed.
The activity of the products was expressed as the percentage inhibition in the weight gain of the treated animals compared with the weight gain in the control animals.
The ED 30 which corresponds to a 30% inhibition in the weight gain was determined.

SMILES	R 1 (relative local anti-inflammatory activity compared with betamethasone 17,21-dipropionate) [1]	activity compared with betamethasone 17,21-dipropionate (times greater) [1]	ED50 (local anti-inflammatory activity, 50% inhibition in granuloma weight) [1] [mg/pellet]	ED50 (50% decrease in weight of the thymuses) [2] [mg/pellet]	R 2 (relative effect on thymus weight compared with D.P.B.) [2]	ED30 (30% inhibition in the weight gain) [3] [mg/pellet]	R 3 (relative activity on weight gain compared with D.P.B.) [3]
CCC(=O)OC1(C(=O)CSC(=O)CC)C(C)CC2C3CCC4=CC(=O)C=CC4(C)C3(F)C(O)CC21C (stereo not drawn) [Ex. 11, 9α-fluoro-11β-hydroxy-16β-methyl-pregna-1,4-diene-3,20-dione (or betamethasone) 17-propionate, 21-thiopropionate]	134	more than 100 times	0.012	0.46	1.9	0.8	1
CCCCC(=O)OC1(C(=O)CSC(=O)CCCC)C(C)CC2C3CCC4=CC(=O)C=CC4(C)C3(F)C(O)CC21C (stereo not drawn) [Ex. 12, 9α-fluoro-11β-hydroxy-16β-methyl-pregna-1,4-diene-3,20-dione (or betamethasone) 17-valerate, 21-thiovalerate]	> 129	more than 100 times	< 0.0125	> 0.8	< 1	> 0.8	< 1
CCCCC(=O)OC1(C(=O)CSC(C)=O)C(C)CC2C3CCC4=CC(=O)C=CC4(C)C3(F)C(O)CC21C (stereo not drawn) [Ex. 13, 9α-fluoro-11β-hydroxy-16β-methyl-pregna-1,4-diene-3,20-dione (or betamethasone) 17-valerate, 21-thioacetate]	32.2	–	0.050	0.8	1.1	0.65	1.23
CC(=O)OC1(C(=O)CSC(=O)CC(C)(C)C)C(C)CC2C3CCC4=CC(=O)C=CC4(C)C3(F)C(O)CC21C (stereo not drawn) [Ex. 14, 9α-fluoro-11β-hydroxy-16α-methyl-pregna-1,4-diene-3,20-dione (or dexamethasone) 17-acetate, 21-thio-tert.butyl-acetate]	537	more than 100 times	0.003	0.33	2.6	0.015	53
CCC(=O)OC1(C(=O)CSC(=O)CC)C(C)CC2C3CCC4=CC(=O)C=CC4(C)C3(Cl)C(O)CC21C (stereo not drawn) [Ex. 15, 9α-chloro-11β-hydroxy-16β-methyl-pregna-1,4-diene-3,20-dione (or beclomethasone) 17-propionate, 21-thiopropionate]	> 322	more than 100 times	< 0.005	2.4	0.36	0.56	1.42
CCCCC(=O)SCC(=O)C1(OC(=O)CC)C(C)CC2C3CCC4=CC(=O)C=CC4(C)C3(Cl)C(O)CC21C (stereo not drawn) [Ex. 16, 9α-chloro-11β-hydroxy-16β-methyl-pregna-1,4-diene-3,20-dione (or beclomethasone) 17-propionate, 21-thiovalerate]	13.4	–	0.120	> 1	< 0.86	> 1.0	< 0.8
CCCCC(=O)OC1(C(=O)CSC(C)=O)C(C)CC2C3CCC4=CC(=O)C=CC4(C)C3(Cl)C(O)CC21C (stereo not drawn) [Ex. 17, 9α-chloro-11β-hydroxy-16β-methyl-pregna-1,4-diene-3,20-dione (or beclomethasone) 17-valerate, 21-thioacetate]	8.9	–	0.180	> 1	< 0.86	> 1.0	< 0.8
CCCCC(=O)OC1(C(=O)CSC(=O)CCCC)C(C)CC2C3CCC4=CC(=O)C=CC4(C)C3(Cl)C(O)CC21C (stereo not drawn) [Ex. 18, 9α-chloro-11β-hydroxy-16β-methyl-pregna-1,4-diene-3,20-dione (or beclomethasone) 17-valerate, 21-thiovalerate]	16.8	–	0.096	> 1	< 0.86	> 1.0	< 0.8
C=C1C[C@H]2[C@@H]3CCC4=CC(=O)C=C[C@]4(C)[C@H]3[C@@H](O)C[C@]2(C)[C@@]1(OC(=O)CC)C(=O)CSC(=O)CC [Ex. 19, 11β-hydroxy-16-methylene-pregna-1,4-diene-3,20 dione (or prednylidene)17-propionate, 21-thiopropionate]	0.89	–	1.800	7	0.12	0.015	53
